Measurements: patent US20240239790A1, “7-Morpholino-1,6-Naphthyridin-5-yl Derivatives and Pharmaceutical Compositions Thereof Useful as DNA-PK Inhibitor” (adMare Therapeutics Society, priority 2021, published 2024)
Like-named read-outs stand apart in the source and are kept apart here.

How the values were obtained:
[1] = system: FaDu tumour xenograft; experiment: Clonogenic Survival, FaDu tumour xenograft-bearing Rag2M mice, compound ± radiation (CS-ER); type: in vivo, mouse; conditions: 30 mpk + 8 Gy
Experimental: FaDu tumour xenograft-bearing Rag2M mice were treated with single administrations of test compounds at indicated doses±radiation as indicated, at time 0.
Mice were irradiated at 1 h post compound administration (unless otherwise indicated), with 300 KV X-rays and a 10 mA current from a Precision XRAD 300 machine (USA) with a beam-hardening filter (2 mm Al+0.25 mm Cu+0.75 mm Sn) and an adjustable site to specimen distance (SSD) at a dose of 8-10 Gy, delivered at a rate of ˜1.05 Gy/min.
Mice were terminated at times after irradiation as indicated, and tumour tissues excised. A portion of tumour approximately 300-500 mg was briefly minced using sterile scissors and placed in a pre-weighed gentleMACS C tube (Miltenyi Biotec cat #130-093-237) and weighed with combined tumour+tube mass recorded. A 5 mL aliquot of enzyme cocktail comprising of trypsin/DNase/collagenase/EDTA-Na2 in PBS (1 mg/ml trypsin+0.26 mg/ml DNase+0.21 mg/ml collagenase+2 mM EDTA-Na2) was added to the tube, which is then run on the gentleMACS Dissociator disaggregation system. Tubes were then incubated at 37° C. and continually rotated for 20 min before again running on the gentleMACS Dissociator program. Samples were then diluted with 5 ml MEM medium containing 5% FBS and filtered (Falcon cell strainer 100 μm, cat #352360). After centrifugation (1100 rpm for 6 minutes at 4° C.) supernatant was aspirated and the cells resuspended in 4 ml cold growth medium (MEM+10% FBS)+50 ul DNase (5 mg/ml DNase solution). Cell numbers were counted from the same cell solution using a hemacytometer. Appropriate dilutions (control: 10,000 cells/ml; 8Gy: 400,000 cells/ml; drug+radiation treated; 500,000 cells/ml) were made and cells then plated in triplicate: control: 100 μl and 300 μl (1000 and 3000 cells/6 cm tissue culture plate); 8Gy: 30 μl, 105 μl and 350 μl (12000, 42000 cells/6 cm plates and 140000 cells/10 cm plate); drug+8Gy: 70 μl, 300p, 1.2 ml (35000 and 150000 cells/6 cm plates and 600000 cells/10 cm plates—only duplicate). Plates were incubated at 37° C. (in a 5% CO2, 5% O2 and balance N2 environment) for 14 days. For a final and accurate automated live-cell counting a solution of Hoechst33342 (0.01 mg/ml)+Propidium Iodide (0.004 mg/ml) in 0.9% saline was mixed with an appropriate cell number dilution of the samples in 96 well plates (50 ul staining solution+50 ul cell suspension of 10000 cells/ml) and images are taken of the wells and cell numbers are calculated by a computer program.
After 14 days plates were removed from the incubator, rinsed with PBS and stained with cold 2 g/L Malachite green oxalate salt solution (Sigma-Aldrich, cat #M6880) for 30 minutes at room temperature. Plates were rinsed with distilled water and dried. Pictures were obtained of the plates and colonies consisting of 50 or more cells were counted using a Stuart Scientific colony counter.
All plates with colonies were analyzed except when colony numbers were so high that the edges of individual colonies could not be determined accurately. Plating efficiency (PE) of each tumour sample was calculated first: PE is a ratio of the number of colonies to the number of cells seeded (sum of all the colonies countable in all the plates of the same sample divided by the sum of cells plated in the same plates). The PE of control tumours was averaged for the calculation of surviving fraction (SF): SF is based on the number of colonies formed in drug and/or radiation treated cells relative to that of untreated control (PE of treated tumor sample divided by PE of control). All treated data points were compared separately to the average of the controls. Finally a Clonogenic Survival Enhancement Ratio (CS-ER) was calculated: the SF of irradiated control groups were divided by the SF of treatment groups to determine treatment group-specific CS-ER values, and these were assigned scores based on defined response ranges: values>6=A, 4-6=B, <4=C.

[2] = Pharmacokinetic study in mice (IV and PO), plasma; type: in vivo, mouse; conditions: for AUC(0-t) / half-life / AUC(0-inf) / Cmax / Cmax at 5 min: female, C57BL/6; for AUC(0-t) / half-life / AUC(0-inf) / Cmax / AUC—% Extrap—obs / Cl_obs / Vz_obs / Cmax at 5 min / AUC_% Extrap_obs: mouse plasma; for Cmax: read-out: Cmax (5 min); for Rsq: Mouse Plasma, fit of NCA
Experimental: Pharmacokinetic analysis of compounds was conducted following bolus intravenous (IV) or bolus oral (PO) gavage in mice. Female mice (C57BL/6) in the 17-26 g range were weighed, and then administered an individually prescribed dose volume based on body weight of formulated compound via the intravenous (IV; tail vein) or oral gavage (PO) route (IV 5 mL/kg; PO 10 mL/kg). At selected timepoints post administration, blood was collected into vials with anticoagulant, processed for plasma by centrifugation, and then kept frozen ([…]) until analysis.
The in-vivo study plasma samples were analyzed using Ultra Performance Liquid Chromatography (UPLC) with tandem mass spectrometry (MS/MS) detection in multiple reaction monitoring (MRM) mode. A generic bioanalytical method involving plasma sample extraction and cleanup by protein precipitation with acetonitrile was used followed by UPLC-MS/MS analysis.
A brief example of a generic bioanalytical UPLC-MS/MS method used for analysis of compounds in the in-vivo study plasma samples is as follows. Plasma samples were spiked with internal standard prior to extraction and cleanup by protein precipitation with ice cold acetonitrile containing 0.1% (v/v) ammonium hydroxide at a ratio of 3:1 (solvent:plasma) and centrifuged at 18213 rcf for 15 minutes at 4° C. to pellet precipitates. Aliquots of supernatants were transferred to a 96-well plate and evaporated to dryness at 40° C. under a stream of nitrogen gas. Samples were reconstituted in 50:50 acetonitrile/10 mM ammonium acetate buffer pH 8, mixed thoroughly and analyzed using Ultra Performance Liquid Chromatography (UPLC) with tandem mass spectrometry (MS/MS) detection in multiple reaction monitoring (MRM) mode. Matrix-matched calibration standards and quality control (QC) samples were prepared in naïve C57Bl/6 mouse plasma. The UPLC column used was Waters Acquity UPLC BEH C18 1.7 um, 2.1 mm×50 mm (with guard column). The UPLC mobile phase consisted of: Mobile phase A: 10 mM ammonium acetate in Water pH 8, and Mobile phase B: Acetonitrile. Separation was accomplished with a linear gradient of 5% mobile phase B to 95% mobile phase B in 2 min, and a flow rate of 0.35 mL/min. The MS/MS data acquisition was accomplished using 3 MRM Transitions in ESI+ mode. Parent ion mass 508.37 m/z-to-Daughter ions (m/z) 117.05, 232.13 and 270.22. The quantitation of concentrations in test samples was achieved by matrix-matched calibration with normalization using an internal standard. Data acquisition and analysis were performed using Waters MassLynx software with TargetLynx application manager.
Estimation of PK parameters was performed using independent noncompartmental model method by PHOENIX WinNonlin software.

AUC(0-t) ([2]; IV, 3 mg/kg) [ng·h/mL]	half-life ([2]; IV, 3 mg/kg) [h]	AUC(0-t) ([2]; PO, 10 mg/kg) [ng·h/mL]	half-life ([2]; PO, 10 mg/kg) [h]	Cl_obs ([2]; IV, 3 mg/kg) [mL/min/kg]	Vz_obs ([2]; IV, 3 mg/kg) [L/kg]	Cl_obs ([2]; PO, 10 mg/kg) [mL/min/kg]	Vz_obs ([2]; PO, 10 mg/kg) [L/kg]	Structure (SMILES)	CS-ER Range Score ([1]; 2 h)	CS-ER Range Score ([1]; 4 h)	further results
4100	1.77	2620	2.92	12.022	1.8426	63.328	16.019	CN(C)C(=O)Cn1ccc2nc(N[C@H]3CC[C@@H](Oc4nc(N5CCOCC5)cc5ncccc45)CC3)ncc21 [Compound 86, N,N-Dimethyl-2-(2-(((1s,4s)-4-((7-morpholino-1,6-naphthyridin-5-yl)oxy)cyclohexyl)amino)-5H-pyrrolo[3,2-d]pyrimidin-5-yl)acetamide]	B B (4-6=B)	B B (4-6=B)	AUC(0-inf) ([2]; IV, 3 mg/kg, read-out: AUCINF—obs): 4160 ng·h/mL; Cmax ([2]; IV, 3 mg/kg): 6450 ng/mL; AUC(0-inf) ([2]; PO, 10 mg/kg, read-out: AUCINF—obs): 2630 ng·h/mL; Cmax ([2]; PO, 10 mg/kg): 589 ng/mL; AUC—% Extrap—obs ([2]; IV, 3 mg/kg): 1.44%; AUC—% Extrap—obs ([2]; PO, 10 mg/kg): 0.47%; F ([2]; mouse, PO, 10 mg/kg): 19%
4340	2.21	6770	2.07	11.43	2.18741	24.6043	4.41523	CN(C)C(=O)Cn1c(=O)n(C2CCOCC2)c2nc(N[C@H]3CC[C@@H](Oc4nc(N5CCOCC5)cc5ncccc45)CC3)ncc21 [Compound 97, N,N-Dimethyl-2-(2-(((1s,4s)-4-((7-morpholino-1,6-naphthyridin-5-yl)oxy)cyclohexyl)amino)-8-oxo-9-(tetrahydro-2H-pyran-4-yl)-8,9-dihydro-7H-purin-7-yl)acetamide]	C (<4=C)	B (4-6=B)	Rsq ([2]; IV, 3 mg/kg): 0.98; Rsq ([2]; PO, 10 mg/kg): 0.98; F ([2]; Mouse, PO 10 mg/kg vs IV 3 mg/kg): 47%; Cmax at 5 min ([2]; IV, 3 mg/kg): 4860 ng/mL; AUC(0-inf) ([2]; IV, 3 mg/kg, read-out: AUCINF_obs): 4380 ng·h/mL; Cmax at 5 min ([2]; PO, 10 mg/kg): 2520 ng/mL; AUC(0-inf) ([2]; PO, 10 mg/kg, read-out: AUCINF_obs): 6770 ng·h/mL; AUC_% Extrap_obs ([2]; IV, 3 mg/kg): 0.77%; AUC_% Extrap_obs ([2]; PO, 10 mg/kg): 0.03%
